According to patent US9594084B2, “Phosphorylation of histones and uses thereof” (H. LEE MOFFITT CANCER CENTER AND RESEARCH INSTITUTE, priority 2012, dated 2017):
Entries after “also recorded” stand apart in the source; their conditions may differ.

What was measured:
Xenopus laevis embryos = tested on: Xenopus laevis embryos
Source text: Table 4 provides the phenotype distribution for surviving embryos (raw data are identical to those in Table 3).

Ack1 [1] = target: T1, Ack1 (Homo sapiens, UniProt Q07912); assay type: biochemical
Procedure: Purified histone H3 and Ack1 were incubated at 37° C. for 1 hour with or without AIM-100 followed by immunoblotting with indicated antibodies.

[2] = tested on: pTyr-AR recruitment to PSA, NKX3,1 and TMPRSS2 promoters; assay: ChIP-qPCR for pTyr267-AR binding to PSA, NKX3.1 and TMPRSS2 AREs in LAPC4 cells; assay type: cell-based; settings: EGF (10 ng/ml, 1 hr), AIM-100 0.8 μM, 16 hr
Procedure: FIG. 8A-8C are bar graphs showing Ack1 inhibition by AIM-100 suppressed recruitment of pTyr-AR to PSA (FIG. 8A), NKX3.1 (FIG. 8B) and TMPRSS2 (FIG. 8C) promoters. LAPC4 cells were treated with DHT (5 nM, 16 hr) or EGF (10 ng/ml, 1 hr), and AIM-100 (0.8 μM, 16 hr) and ChIP analysis for pTyr267-AR binding to the PSA, NKX3.1 and TMPRSS2 AREs was performed followed by qPCR. *p=0.001; **p=0.006; ***p=0.014.
LAPC4 cells were treated with DHT (5 nM, 16 hr), EGF (10 ng/ml, 1 hr), or EGF and AIM-100 (0.8 μM, 16 hr) and ChIP analysis for pTyr267-AR binding to the PSA, NKX3.1 and TMPRSS2 AREs was performed followed by qPCR. Ack1 inhibition by AIM-100 suppressed recruitment of pTyr-AR to PSA, NKX3,1 and TMPRSS2 promoters (FIGS. 8A-8C).

[3] = tested on: LNCaP-caAck expressing cells; assay: LNCaP-caAck prostate xenograft tumor growth in castrated nude male mice; assay type: in vivo; settings: 4 mg/kg of body weight per injection, five times
Procedure: FIG. 9 is a line graph showing prostate xenograft tumor volume (mm^3) in castrated nude male mice treated with AIM-100 Ack1 inhibitor or DMSO control. Castrated nude male mice were injected with LNCaP-caAck expressing cells. Mice were injected with AIM-100 (4 mg/kg of body weight per injection) on five times (n=8) and tumor volumes were measured.
Castrated nude male mice were injected with LNCaP-caAck expressing cells. Mice were injected with AIM-100 (4 mg/kg of body weight per injection) on five times (n=8) and tumor volumes were measured.

H3K9 and K27 methylation = assay: Immunoblot of H3K9/H3K27 methylation in LAPC4 cells; assay type: cell-based
Procedure: FIG. 25 is an immunoblot of lysates from LAPC4 cells that were untreated (column 1), treated with EGF (column 2), or treated with EGF and AIM-100 (column 3) that were immunoblotted with H3K9 dimethyl (top panel), H3K27 (middle panel), or H3 (bottom panel) antibodies.
The prostate cancer derived cells, LAPC4 were treated with AIM-100 (7 uM, 16 hours). The equal amount of cell lysates were subjected to immunoblotting with H3K9me3 and histone H3 antibodies. […] The histone H3 antibodies were used as a control to indicate equal amount of protein.
(§1) LAPC4 cells were treated with EGF or EGF and AIM-100 and the lysates were immunoblotted with H3K9 dimethyl and H3K27 dimethyl antibodies. Thus, marking of chromatin with H3-Tyr99-phosphorylation within AR-target gene promoters may suppress repressive dimethylation leading to transcriptional activation in androgen-deprived environment of prostate tumors.
as §1, with “H3K9” for “H3K9 dimethyl”, “H3K27” for “H3K27 dimethyl”

Ack1 [4] = target: T2, Ack1 (Homo sapiens, UniProt Q07912, E346K); assay type: biochemical; settings: 5 uM for 1 hour at 30° C.
T2 construct: HA; made in house

Ack1 [5] = target: T1, Ack1; assay type: biochemical; settings: ELISA, read at 450 nm
Procedure: WEE1 and Ack1 are two non-receptor tyrosine kinases or NRTKs that have known nuclear functions. To determine whether WEE1 and Ack1 can directly target H4 for Tyr88-phosphorylation, this study performed in vitro kinase assay. In brief, the Streptavidin coated 96-well plates (R&D systems) were incubated with biotinylated H4-derived peptide […] (SEQ ID NO: 64) for 1 hour. The plates were washed and the purified WEE1 or Ack1 were added in kinase buffer (20 mM HEPES, 150 mM NaCl, 0.5% Triton X-100, 10% Glycerol, phosphatase and protease inhibitors) containing ATP and MgCl2. After 2 hours of incubation, plates were washed with phosphate buffered saline containing 0.1% Tween 20 (PBST) and blocked in 3% BSA. The pY88-H4 antibodies (at 1:500 dilution) were added and incubated for 1 hour. Unbound antibodies were washed and HRP-conjugated anti-mouse secondary Antibodies (1:2000) were added. Magnitude of phosphorylation was detected using developer solution (OPD tablets, Sigma) and the plates were read at 450 nm. As a negative control, no kinase and no peptide reactions were used. The biotinylated phosphopeptide […]p[…] (SEQ ID NO: 65) was used as a positive control.

ATM = target: T3, ATM (Homo sapiens, UniProt Q13315); assay: IR-induced de-phosphorylation of pY37-H2B in H1975 cells (immunoblot); assay type: cell-based; settings: H1975 irradiated (15GY)
T3 construct: endogenous in cells; host or cells: H1975
Source text: Whole cell extracts were immunoblotted with indicated antibodies.
To determine whether pY37-H2B de-phosphorylation is regulated by ATM recruited to the sites of DSBs by the MRN complex, Applicants treated the cells with the ATM inhibitor Ku55393. […] EYA in turn interacted with H2AX executing a damage-signal-dependent dephosphorylation of Tyr142, that is constitutively phosphorylated in the absence of DNA damage (Cook, P. J. et al. (2009) Nature, 458(7238):591-596).

[6] = Table 3, of total injected embryos

T1 sequence (Q07912 whole entry): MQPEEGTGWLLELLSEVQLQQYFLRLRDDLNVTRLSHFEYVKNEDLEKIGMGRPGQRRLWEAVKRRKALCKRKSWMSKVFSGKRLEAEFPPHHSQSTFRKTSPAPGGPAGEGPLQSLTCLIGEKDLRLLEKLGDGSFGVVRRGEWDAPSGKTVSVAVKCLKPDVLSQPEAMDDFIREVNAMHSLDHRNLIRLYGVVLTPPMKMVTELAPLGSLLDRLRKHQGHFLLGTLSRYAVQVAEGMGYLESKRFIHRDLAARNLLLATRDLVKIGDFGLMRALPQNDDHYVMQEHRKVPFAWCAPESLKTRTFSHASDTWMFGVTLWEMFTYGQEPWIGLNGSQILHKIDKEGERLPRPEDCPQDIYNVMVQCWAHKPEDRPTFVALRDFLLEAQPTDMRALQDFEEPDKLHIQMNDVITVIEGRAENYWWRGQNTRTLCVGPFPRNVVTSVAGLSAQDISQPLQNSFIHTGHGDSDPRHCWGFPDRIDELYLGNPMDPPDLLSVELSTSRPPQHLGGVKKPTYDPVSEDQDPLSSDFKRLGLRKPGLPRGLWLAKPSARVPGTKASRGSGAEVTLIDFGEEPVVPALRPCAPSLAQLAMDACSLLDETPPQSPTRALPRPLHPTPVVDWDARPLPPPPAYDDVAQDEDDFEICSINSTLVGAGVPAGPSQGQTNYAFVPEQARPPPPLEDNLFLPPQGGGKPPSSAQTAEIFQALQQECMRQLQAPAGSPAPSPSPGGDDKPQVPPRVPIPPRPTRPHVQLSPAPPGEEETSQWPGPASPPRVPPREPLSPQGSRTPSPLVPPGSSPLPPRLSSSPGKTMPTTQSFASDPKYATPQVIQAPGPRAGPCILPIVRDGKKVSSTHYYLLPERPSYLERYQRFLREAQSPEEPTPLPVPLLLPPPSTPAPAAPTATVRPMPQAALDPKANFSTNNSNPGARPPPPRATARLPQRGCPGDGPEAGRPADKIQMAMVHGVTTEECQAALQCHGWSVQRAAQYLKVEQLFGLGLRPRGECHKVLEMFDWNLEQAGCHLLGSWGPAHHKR
T3 sequence (Q13315 whole entry): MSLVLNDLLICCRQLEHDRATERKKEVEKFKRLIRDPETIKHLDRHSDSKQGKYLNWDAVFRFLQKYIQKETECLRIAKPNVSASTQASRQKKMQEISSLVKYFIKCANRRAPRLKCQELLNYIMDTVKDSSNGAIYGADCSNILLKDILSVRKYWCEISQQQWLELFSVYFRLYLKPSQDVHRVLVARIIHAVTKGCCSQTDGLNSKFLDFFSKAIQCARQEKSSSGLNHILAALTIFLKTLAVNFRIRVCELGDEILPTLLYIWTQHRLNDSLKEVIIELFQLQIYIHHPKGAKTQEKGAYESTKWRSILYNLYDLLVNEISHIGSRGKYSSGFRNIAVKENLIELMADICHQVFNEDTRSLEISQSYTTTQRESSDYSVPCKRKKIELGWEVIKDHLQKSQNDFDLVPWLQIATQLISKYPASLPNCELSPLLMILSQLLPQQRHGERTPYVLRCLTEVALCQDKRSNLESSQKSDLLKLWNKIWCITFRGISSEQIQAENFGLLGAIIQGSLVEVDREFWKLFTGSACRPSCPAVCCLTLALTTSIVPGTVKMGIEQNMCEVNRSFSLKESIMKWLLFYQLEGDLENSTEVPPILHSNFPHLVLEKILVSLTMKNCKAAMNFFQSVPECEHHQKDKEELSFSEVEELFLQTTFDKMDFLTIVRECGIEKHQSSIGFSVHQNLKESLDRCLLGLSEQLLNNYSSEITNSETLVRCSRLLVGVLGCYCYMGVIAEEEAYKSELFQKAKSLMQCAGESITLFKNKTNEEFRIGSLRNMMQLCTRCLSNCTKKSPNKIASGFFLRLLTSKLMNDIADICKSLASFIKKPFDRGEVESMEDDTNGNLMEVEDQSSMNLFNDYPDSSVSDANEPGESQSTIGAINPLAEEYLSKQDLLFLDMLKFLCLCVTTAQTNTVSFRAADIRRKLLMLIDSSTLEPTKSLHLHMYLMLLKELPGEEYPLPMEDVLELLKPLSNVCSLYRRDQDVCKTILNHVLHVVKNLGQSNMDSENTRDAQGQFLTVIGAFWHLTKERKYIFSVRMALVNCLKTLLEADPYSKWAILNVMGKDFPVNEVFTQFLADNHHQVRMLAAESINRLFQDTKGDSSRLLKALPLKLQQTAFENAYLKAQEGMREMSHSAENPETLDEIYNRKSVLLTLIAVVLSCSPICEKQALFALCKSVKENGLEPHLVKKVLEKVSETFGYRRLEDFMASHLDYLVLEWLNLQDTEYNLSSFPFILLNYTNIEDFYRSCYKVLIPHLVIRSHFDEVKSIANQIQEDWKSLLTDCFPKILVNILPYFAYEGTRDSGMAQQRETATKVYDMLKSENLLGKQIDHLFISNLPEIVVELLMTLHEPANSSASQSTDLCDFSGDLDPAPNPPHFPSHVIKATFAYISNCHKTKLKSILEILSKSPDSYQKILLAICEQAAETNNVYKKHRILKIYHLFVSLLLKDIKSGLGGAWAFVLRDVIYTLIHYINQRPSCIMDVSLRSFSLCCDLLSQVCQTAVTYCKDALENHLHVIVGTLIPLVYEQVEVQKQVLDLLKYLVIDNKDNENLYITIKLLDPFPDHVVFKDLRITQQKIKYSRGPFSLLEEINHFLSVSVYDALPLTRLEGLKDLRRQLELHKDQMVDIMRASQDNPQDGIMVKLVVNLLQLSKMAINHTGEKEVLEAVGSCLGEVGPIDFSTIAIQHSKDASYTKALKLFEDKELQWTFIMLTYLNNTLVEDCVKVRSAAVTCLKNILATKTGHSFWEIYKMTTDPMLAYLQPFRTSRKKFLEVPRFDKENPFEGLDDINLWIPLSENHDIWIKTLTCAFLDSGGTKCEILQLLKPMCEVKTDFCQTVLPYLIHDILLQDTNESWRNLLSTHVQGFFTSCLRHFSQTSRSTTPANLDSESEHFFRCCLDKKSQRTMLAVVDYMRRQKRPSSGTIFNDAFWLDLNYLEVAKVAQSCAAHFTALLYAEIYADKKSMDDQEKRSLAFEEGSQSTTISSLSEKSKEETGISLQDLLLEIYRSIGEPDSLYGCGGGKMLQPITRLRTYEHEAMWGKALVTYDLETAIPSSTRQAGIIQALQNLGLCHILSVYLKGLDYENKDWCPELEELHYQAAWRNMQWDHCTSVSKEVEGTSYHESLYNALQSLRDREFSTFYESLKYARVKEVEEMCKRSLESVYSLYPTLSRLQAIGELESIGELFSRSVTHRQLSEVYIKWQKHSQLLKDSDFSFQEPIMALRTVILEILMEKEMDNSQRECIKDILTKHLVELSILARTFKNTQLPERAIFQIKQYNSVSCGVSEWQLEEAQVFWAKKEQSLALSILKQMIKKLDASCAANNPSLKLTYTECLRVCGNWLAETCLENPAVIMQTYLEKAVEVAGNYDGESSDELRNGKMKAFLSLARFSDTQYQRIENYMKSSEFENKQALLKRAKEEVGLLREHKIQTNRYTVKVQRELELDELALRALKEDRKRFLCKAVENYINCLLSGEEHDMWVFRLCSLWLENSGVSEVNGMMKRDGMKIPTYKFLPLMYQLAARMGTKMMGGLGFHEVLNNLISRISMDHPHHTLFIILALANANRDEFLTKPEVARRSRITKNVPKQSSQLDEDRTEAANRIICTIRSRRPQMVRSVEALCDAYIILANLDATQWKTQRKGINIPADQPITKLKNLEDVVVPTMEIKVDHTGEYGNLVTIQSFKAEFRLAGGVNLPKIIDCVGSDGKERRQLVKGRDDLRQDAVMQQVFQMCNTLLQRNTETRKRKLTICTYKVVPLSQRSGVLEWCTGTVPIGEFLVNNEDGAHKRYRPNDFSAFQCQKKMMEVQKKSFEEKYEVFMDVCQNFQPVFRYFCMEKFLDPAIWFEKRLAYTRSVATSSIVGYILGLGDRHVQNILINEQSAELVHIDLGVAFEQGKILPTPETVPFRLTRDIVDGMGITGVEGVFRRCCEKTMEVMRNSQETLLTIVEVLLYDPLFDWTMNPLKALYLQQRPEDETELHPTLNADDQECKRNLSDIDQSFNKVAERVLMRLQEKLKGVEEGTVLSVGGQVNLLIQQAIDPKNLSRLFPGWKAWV
T2 sequence (Q07912 whole entry E346K): as the sequence (Q07912 whole entry) above, with E346K counted along it

In the case of `c1ccc(-c2oc3ncnc(NC[C@@H]4CCCO4)c3c2-c2ccccc2)cc1` [AIM-100], the “abn/delay, gastrulation is abnormal or delayed (% of total)” value (Xenopus laevis embryos; [6]) is reported as “(6.7%)”, the “abn/delay, gastrulation is abnormal or delayed (number of embryos)” value (Xenopus laevis embryos; [6]) is reported as 15 and the “dead (% of total)” value (Xenopus laevis embryos; [6]) is reported as “(43%)”. The “dead (number of embryos)” value (Xenopus laevis embryos; [6]) was 97, the “epib blk, epiboly block phenotype (% of total)” value (Xenopus laevis embryos; [6]) was “(29%)” and the “epib blk, epiboly block phenotype (number of embryos)” value (Xenopus laevis embryos; [6]) was 65. For the same compound, the “epib red, partial phenotype (% of total)” value (Xenopus laevis embryos; [6]) was “(8%)”, the “epib red, partial phenotype (number of embryos)” value (Xenopus laevis embryos; [6]) was 18 and the “norm. (% of total)” value (Xenopus laevis embryos; [6]) was “(11%)”. For the same compound, the “norm. (number of embryos)” value (Xenopus laevis embryos; Table 3, of total injected embryos, antibodies 200 ng/em, AIM-100 200 pM/em) was 24, the “abn/delay (% of survivors)” value (Xenopus laevis embryos; Table 4, surviving embryos) was 12% and the “abn/delay (number of embryos)” value (Xenopus laevis embryos; Table 4, surviving embryos) was 15. The “epib blk (number of embryos)” value (Xenopus laevis embryos; Table 4, surviving embryos) was 65, the “epib red (number of embryos)” value (Xenopus laevis embryos; Table 4, surviving embryos) was 18 and the “normal (% of survivors)” value (Xenopus laevis embryos; Table 4, surviving embryos) was 19%. The “normal (number of embryos)” value (Xenopus laevis embryos; Table 4, surviving embryos) was 24, the mortality rate (Xenopus laevis embryos; by the onset of gastrulation (~20 hours after microinjection at the 2-cell stage, 16° C.)) was 43-45% and the “timing or pattern of early cleavages” value (Xenopus laevis embryos; injected embryos) was “did not alter”. The “epib blk, epiboly block/involution failure (% of survivors)” value (Xenopus laevis embryos; surviving embryos) was 51%, the “epib red, partial reduced epiboly phenotype (% of survivors)” value (Xenopus laevis embryos; surviving embryos) was 14% and the “Ack1 phosphorylation of H3 at Tyr99” value (Ack1 [1]) was “significantly compromised”. For the same compound, the “recruitment of pTyr-AR to PSA, NKX3,1 and TMPRSS2 promoters” value [2] was “suppressed”, the “prostate xenograft tumor growth” value [3] was “mitigated the growth; also recorded: partially suppresses” and the “H3K9 and K27 dimethylation and trimethylation” value (H3K9 and K27 methylation) was “increased”. For the same compound, the “H3 K9 trimethylation” value (H3K9 and K27 methylation; LAPC4 cells, 7 uM, 16 hours) was “increased; also recorded: significant increase”, the “H3K9 and K27 dimethylation” value (H3K9 and K27 methylation; LAPC4 cells, EGF and AIM-100) was “increased” and the “H4 pTyr51-phosphorylation by purified E346K-Ack1” value (Ack1 [4]) was “abrogated”. The “H4 Tyr88-phosphorylation by Ack1” value (Ack1 [5]) was “significantly decreased”.
With `O=c1cc(-c2cccc3c2Sc2ccccc2S3)oc(N2CCOCC2)c1` [Ku55393] the “IR-induced de-phosphorylation of pY37-H2B” value (ATM) was “prevented”.
